Reference: patent US5366982A (priority 1990, dated 1994)
Read-outs that look alike come from different tables or passages of the source.

Legend:
leukotriene B4 receptors = leukotriene B4 receptors (Cavia porcellus, UniProt H0VYV8); assay: biochemical; format: binding, guinea-pig; details: for IC50: Table XIX, guinea-pig spleen membranes, tritium-labelled LTB4, read-out: IC50 Binding (Cheng); for inhibition at 10 µM: read-out: Binding (Cheng) % Inhibition at 10 μM
[1] = system: guinea-pig pulmonary parenchyma; assay: L. Parenchyma: guinea-pig pulmonary parenchyma contraction antagonism induced by LTB4 (Sirois); format: cell-based; details: read-out: IC50 L. Parenchyma
Description: Further, compounds of this invention are shown to be leukotriene B4 antagonists in the technique of guinea-pig pulmonary parenchyma contraction antagonism induced by LTB4 described by P. Sirois et al., Pharmacology, 31, 225-236 (1985). In this technique, products are active at concentrations of between about 1 to about 10,000 nM.

[2] = Cavia porcellus, Table XIX, guinea-pig pulmonary parenchyma contraction induced by LTB4

leukotriene B4 receptors, sequence (H0VYV8 1-348): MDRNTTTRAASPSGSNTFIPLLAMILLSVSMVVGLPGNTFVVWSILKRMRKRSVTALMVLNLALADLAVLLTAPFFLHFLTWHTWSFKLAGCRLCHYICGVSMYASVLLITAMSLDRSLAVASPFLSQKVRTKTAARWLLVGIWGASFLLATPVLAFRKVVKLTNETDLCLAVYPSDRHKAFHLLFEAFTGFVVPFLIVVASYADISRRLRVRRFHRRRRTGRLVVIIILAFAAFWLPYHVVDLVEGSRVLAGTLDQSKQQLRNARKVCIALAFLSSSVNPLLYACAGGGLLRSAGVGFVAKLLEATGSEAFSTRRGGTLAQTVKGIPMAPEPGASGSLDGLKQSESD

| IC50 (leukotriene B4 receptors) | IC50 [1, 2] | Compound | also measured |
| --- | --- | --- | --- |
| 4 nM |  | 6-[(6-cyclopropyl-5-phenyl-2-pyridyl)oxy]-2,2-dimethylhexanoic acid | IC50 ([1]; Table XIX, guinea-pig pulmonary parenchyma contraction induced by LTB4): 200 nM |
|  | 10 nM | CC(C)(CCCCOc1cc(-c2ccccc2)cc(-c2ccccc2)n1)C(=O)O [2,2-dimethyl-6-[(4,6-diphenyl-2-pyridyl)oxy]hexanoic acid] |  |
|  | 140 nM | CC(C)(CCCCOc1cc(-c2ccc3c(c2)OCO3)cc(-c2ccccc2)n1)C(=O)O [2,2-dimethyl-6-{[4-(3,4-methylenedioxyphenyl)-6-phenyl-2-pyridyl]oxy}hexanoic acid] |  |
| 13 nM | 1000 nM | CC(C)(CCCCOc1cc(-c2cccc(Cl)c2)cc(-c2ccccc2)n1)C(=O)O [2,2-dimethyl-6-{[4-(3-chlorophenyl)-6-phenyl-2-pyridyl]oxy}hexanoic acid] |  |
| 2 nM | 30 nM | COc1cccc(-c2cc(OCCCCC(C)(C)C(=O)O)nc(-c3ccccc3)c2)c1 [2,2-dimethyl-6-{[4-(3-methoxyphenyl)-6-phenyl-2-pyridyl]oxy}hexanoic acid] |  |
| 10 nM | 1 nM | CC(C)(CCCCOc1cc(-c2ccc(N)cc2)cc(-c2ccccc2)n1)C(=O)O [2,2-dimethyl-6-{[4-(4-aminophenyl)-6-phenyl-2-pyridyl]oxy}hexanoic acid] |  |
| 7 nM | 300 nM | CC(C)(CCCCOc1cc(-c2ccc(F)cc2)cc(-c2ccccc2)n1)C(=O)O [2,2-dimethyl-6-{[4-(4-fluorophenyl)-6-phenyl-2-pyridyl]oxy}hexanoic acid] |  |
| 50 nM | 170 nM | COc1ccc(-c2cc(OCCCCC(C)(C)C(=O)O)nc(-c3ccccc3)c2)cc1 [2,2-dimethyl-6-{[4-(4-methoxyphenyl)-6-phenyl-2-pyridyl]oxy}hexanoic acid] |  |
|  | 30 nM | CC(C)(CCCCCOc1cc(-c2ccccc2)cc(-c2ccccc2)n1)C(=O)O [2,2-dimethyl-7-[(4,6-diphenyl-2-pyridyl)oxy]heptanoic acid] |  |
|  | 1000 nM | CC(CCCCOc1cc(-c2cccc(Cl)c2)cc(-c2ccccc2)n1)C(=O)O (centres unmarked) [2-methyl-6-{[4-(3-chlorophenyl)-6-phenyl-2-pyridyl]oxy}hexanoic acid] |  |
|  | 20 nM | COc1cccc(-c2cc(OCCCCC(C)C(=O)O)nc(-c3ccccc3)c2)c1 (centres unmarked) [2-methyl-6-{[4-(3-methoxyphenyl)-6-phenyl-2-pyridyl]oxy}hexanoic acid] |  |
|  | 20 nM | CC(CCCCOc1cc(-c2ccc(N)cc2)cc(-c2ccccc2)n1)C(=O)O (centres unmarked) [2-methyl-6-{[4-(4-aminophenyl)-6-phenyl-2-pyridyl]oxy}hexanoic acid] |  |
|  | 70 nM | CC(CCCCOc1cc(-c2ccc(Cl)cc2)cc(-c2ccccc2)n1)C(=O)O (centres unmarked) [2-methyl-6-{[4-(4-chlorophenyl)-6-phenyl-2-pyridyl]oxy}hexanoic acid] |  |
|  | 20 nM | COc1ccc(-c2cc(OCCCCC(C)C(=O)O)nc(-c3ccccc3)c2)cc1 (centres unmarked) [2-methyl-6-{[4-(4-methoxyphenyl)-6-phenyl-2-pyridyl]oxy}hexanoic acid] |  |
|  | 20 nM | Cc1ccc(-c2cc(OCCCCC(C)C(=O)O)nc(-c3ccccc3)c2)cc1 (centres unmarked) [2-methyl-6-{[4-(4-methylphenyl)-6-phenyl-2-pyridyl]oxy}hexanoic acid] |  |
|  | 10 nM | c1ccc(-c2cc(OCCCCCc3nn[nH]n3)nc(-c3ccccc3)c2)cc1 [5-{[5-(4,6-diphenyl-2-pyridyl)oxy]pentyl}-[1H]-tetrazole] |  |
|  | 1700 nM | O=C(O)CCCCCOc1cc(-c2ccccc2F)cc(-c2ccccc2)n1 [6-{[4-(2-fluorophenyl)-6-phenyl-2-pyridyl]oxy}hexanoic acid] |  |
| 12 nM |  | Nc1cccc(-c2cc(OCCCCCC(=O)O)nc(-c3ccccc3)c2)c1 [6-{[4-(3-aminophenyl)-6-phenyl-2-pyridyl]oxy}hexanoic acid] |  |
| 4 nM |  | O=C(O)CCCCCOc1cc(-c2cccc(Cl)c2)cc(-c2ccccc2)n1 [6-{[4-(3-chlorophenyl)-6-phenyl-2-pyridyl]oxy}hexanoic acid] |  |
| 15 nM |  | Cc1cccc(-c2cc(OCCCCCC(=O)O)nc(-c3ccccc3)c2)c1 [6-{[4-(3-methylphenyl)-6-phenyl-2-pyridyl]oxy}hexanoic acid] |  |
|  | 40 nM | Nc1ccc(-c2cc(OCCCCCC(=O)O)nc(-c3ccccc3)c2)cc1 [6-{[4-(4-aminophenyl)-6-phenyl-2-pyridyl]oxy}hexanoic acid] |  |
| 4000 nM |  | O=C(O)CCCCCOc1cc(-c2ccc(NC(=O)c3ccccc3)cc2)cc(-c2ccccc2)n1 [6-{[4-(4-benzamidophenyl)-6-phenyl-2-pyridyl]oxy}hexanoic acid] |  |
| 20 nM |  | CC(C)(CCCCOc1cc(-c2ccc(Cl)cc2)ccn1)C(=O)O [6-{[4-(4-chlorophenyl)-2-pyridyl]oxy}-2,2-dimethylhexanoic acid] |  |
| 30 nM |  | O=C(O)CCCCCOc1cc(-c2ccc(Cl)cc2)c2ccccc2n1 [6-{[4-(4-chlorophenyl)-2-quinolyl]oxy}hexanoic acid] |  |

| IC50 (leukotriene B4 receptors) | IC50 [1, 2] | Compound | also measured |
| --- | --- | --- | --- |
| 1700 nM |  | COc1ccc(-c2cc(-c3ccc(Cl)cc3)cc(OCCCCCC(=O)O)n2)cc1 [6-{[4-(4-chlorophenyl)-6-(4-methoxyphenyl)-2-pyridyl]oxy}hexanoic acid] |  |
|  | 6000 nM | CN(C)c1ccc(-c2cc(OCCCCCC(=O)O)nc(-c3ccccc3)c2)cc1 [6-{[4-(4-dimethylaminophenyl)-6-phenyl-2-pyridyl]oxy}hexanoic acid] |  |
| 8 nM |  | CNc1ccc(-c2cc(OCCCCC(C)(C)C(=O)O)nc(-c3ccccc3)c2)cc1 [6-{[4-(4-methylaminophenyl)-6-phenyl-2-pyridyl]oxy}-2,2-dimethylhexanoic acid] |  |
|  | 150 nM | CNc1ccc(-c2cc(OCCCCCC(=O)O)nc(-c3ccccc3)c2)cc1 [6-{[4-(4-methylaminophenyl)-6-phenyl-2-pyridyl]oxy}hexanoic acid] |  |
| 50 nM |  | O=C(O)CCCCCOc1cc(-c2ccc([N+](=O)[O-])cc2)cc(-c2ccccc2)n1 [6-{[4-(4-nitrophenyl)-6-phenyl-2-pyridyl]oxy}hexanoic acid] |  |
| 150 nM |  | O=C(O)CCCCCOc1cc(-c2ccc(NC(=O)C(F)(F)F)cc2)cc(-c2ccccc2)n1 [6-{[4-(4-trifluoroacetamidophenyl)-6-phenyl-2-pyridyl]oxy}hexanoic acid] |  |
|  |  | COc1ccc(-c2ccc(OCCCCCC(=O)O)nc2-c2ccc(OC)cc2)cc1 [6-{[5,6-bis-(4-methoxyphenyl)-2-pyridyl]oxy}hexanoic acid] | inhibition at 10 µM (leukotriene B4 receptors): 37% |
| 2 nM |  | CC(CCCCOc1cc(-c2ccc3c(c2)OCO3)cc(-c2ccccc2Cl)n1)C(=O)O (centres unmarked) [6-{[6-(2-chlorophenyl)-4-(3,4-methylenedioxyphenyl)-2-pyridyl]oxy}-2-methylhexanoic acid] |  |
| 1000 nM |  | O=C(O)CCCCCOc1cc(-c2ccccc2)cc(-c2ccc(Cl)cc2)n1 [6-{[6-(4-chlorophenyl)-4-phenyl-2-pyridyl]oxy}hexanoic acid] |  |
| 1000 nM |  | COc1ccc(-c2cc(-c3ccccc3)cc(OCCCCCC(=O)O)n2)cc1 [6-{[6-(4-methoxyphenyl)-4-phenyl-2-pyridyl]oxy}hexanoic acid] |  |
| 300 nM |  | Cc1ccc(-c2cc(-c3ccccc3)cc(OCCCCCC(=O)O)n2)cc1 [6-{[6-(4-methylphenyl)-4-phenyl-2-pyridyl]oxy}hexanoic acid] |  |
|  |  | COc1ccc(-c2cc(OCCCCCC(=O)O)nc(-c3ccccc3)c2)cc1OC [6-{[6-phenyl-4-(3,4-dimethoxyphenyl)-2-pyridyl]oxy]hexanoic acid] | inhibition at 10 µM (leukotriene B4 receptors): 21% |
|  |  | COc1cc(OC)cc(-c2cc(OCCCCCC(=O)O)nc(-c3ccccc3)c2)c1 [6-{[6-phenyl-4-(3,5-dimethoxyphenyl)-2-pyridyl]oxy}hexanoic acid] | inhibition at 10 µM (leukotriene B4 receptors): 50% |
|  |  | O=C(O)CCCCCOc1cc(-c2ccc(C(=O)O)cc2)cc(-c2ccccc2)n1 [6-{[6-phenyl-4-(4-carboxyphenyl)-2-pyridyl]oxy}hexanoic acid] | inhibition at 10 µM (leukotriene B4 receptors): 32% |
| 10000 nM |  | O=C(O)CCCCC=Cc1cccc(Cc2ccccc2)c1 [7-(3-benzyl-phenyl)6-heptenoic acid, 7-(3-benzyl-phenyl)-6-heptenoic acid] |  |
| 7000 nM |  | O=C(O)CCCCCCc1cccc(Cc2ccccc2)c1 [7-(3-benzylphenyl)heptanoic acid, 7-(3-benzyl-phenyl)heptanoic acid] |  |
|  |  | O=C(O)CCCCCCOc1ncc(-c2ccccc2)c(-c2ccccc2)n1 [7-(4,5-diphenyl-2-pyrimidyloxy)heptanoic acid] | inhibition at 10 µM (leukotriene B4 receptors): 22% |
|  |  | O=C(O)CCCCC=Cc1cc(-c2ccccc2)c2ccccc2n1 [7-(4-phenyl-2-quinolyl)-6-hepten-1-oic acid] | inhibition at 10 µM (leukotriene B4 receptors): 27% |
| 1800 nM |  | O=C(O)CCCCCCOc1cc(-c2ccccc2)c2ccccc2n1 [7-[(4-phenyl-2-quinolyl)oxy]heptanoic acid] |  |
| 8500 nM |  | O=C(O)CCCCCCCOc1ncc(-c2ccccc2)c(-c2ccccc2)n1 [8-(4,5-diphenyl-2-pyrimidyloxy)octanoic acid] |  |
| 3000 nM |  | COc1ccc(-c2ccc(OCCCCCCCC(=O)O)nc2-c2ccc(OC)cc2)cc1 [8-{[5,6-bis-(4-methoxyphenyl)-2-pyridyl]oxy}octanoic acid] |  |
| 16 nM |  | O=C(O)CNC(=O)CCCOc1cc(-c2ccccc2)cc(-c2ccccc2)n1 [N-[4-(4,6-diphenyl-2-pyridyloxy)butanoyl]glycine] |  |
| 5000 nM |  | CCOC(=O)CCCCCOc1cc(-c2ccccc2)cc(-c2ccc(Cl)cc2)n1 [ethyl 6-{[6-(4-chlorophenyl)-4-phenyl-2-pyridyl]oxy}hexanoate] |  |
|  |  | O=C(O)CCCCCCCSc1cc(-c2ccccc2)c2ccccc2n1 [sodium 8-[(4-phenyl-2-quinolyl)thio]octanoate] | inhibition at 10 µM (leukotriene B4 receptors): 31% |

| Compound | IC50 (leukotriene B4 receptors) | IC50 [1, 2] | also measured |
| --- | --- | --- | --- |
| O=C(O)CCCCCOc1cc(-c2ccccc2)cc(-c2ccccc2Cl)n1 | 1.8 nM |  | IC50 ([1]; Cavia porcellus): 200 nM |
